Data: patent US12416009B2, “Methods and compositions for the modification of plants” (Flagship Pioneering Innovations VI, LLC, priority 2018, dated 2025)

How the values were obtained:
[1] = tested on: Arabidopsis thaliana seedlings; experiment: Cytotoxicity of free DOX and DOX-loaded PMPs in Arabidopsis thaliana seedlings; format: in vivo, Arabidopsis thaliana Col-0; settings: 100 μM DOX dose; 24 hours exposure, then 3 days; 7-day old seedlings
Experimental: Grapefruit PMPs were produced and loaded with doxorubicin as described in Examples 16a and 16b. Wild type Arabidopsis thaliana Col-0 seeds were obtained from the ABRC, surface sterilized with 50% bleach, stratified for 1-3 d at 4° C., and germinated on half-strength (0.5×) Murashige and Skoog (MS) medium supplemented with 0.5% sucrose, 2.5 mM MES, pH 5.6, containing 0.8% agar, with a photoperiod of 16 h light 23° C./8 h dark 21° C.
To test whether PMPs can deliver a small molecule cargo in planta, 7-day old Arabidopsis thaliana seedlings were transferred to 0.5× liquid MS medium in a 24 well plate (1 seedling per well), and treated with free DOX or DOX-loaded PMPs with an encapsulated DOX dose of 0 (negative control), 25 μM, 50 μM and 100 μM. The plate was covered with aluminum foil and incubated for 24 hours. DOX-containing medium was removed, the seedlings were washed two times with ½×MS medium, and fresh medium was added. Seedlings were incubated for an additional 3 days under a normal photoperiod (16 h light 23° C./8 h dark 21° C.). Next, seedlings were removed from the plate and towel-dried for imaging and cytotoxicity was assessed by analyzing leaf vigor, leaf color and root length. Cytotoxicity is defined by shortening of the roots, loss of leaf vigor, and leaf discoloration (yellow instead of green) when compared to an untreated seedling control.

plants = settings: Culiarez-Mac et al, Plant Growth Regulation 1987; cited from earlier work
Glycine max cell line = experiment: Uptake of AF488-labeled lemon PMPs by plant cells (epifluorescence microscopy); format: cell-based; settings: 1×10^12 AF488-PMPs/mL, 2 hours at 24° C.
Experimental: (§1) Plant cell lines were purchased from the Deutsche Sammlung von Mikroorganismen und Zellkulturen (DSMZ) (Glycine max, #PC-1026; Triticum aestivum, #PC-998) and ABRC (Zea mays, Black Mexican sweet (BMS), and were grown in baffled vented 250 mL flasks in the dark, at 24° C. with agitation (110 rpm). Glycine max and Triticum aestivum were grown in 3.2 g/L Gamborg's B-5 Basal Medium with Minimal Organics supplemented (G5893, Millipore Sigma) pH 5.5, supplemented with 2% sucrose, and 2 mg/L 2,4-dichlorophenoxyacetic acid (2,4D) (D7299, Millipore Sigma) according to the supplier's instructions. BMS cells were grown in Murashige and Skoog basal medium pH 5.8, containing 4.3 g/L Murashige and Skoog Basal Salt Mixture (Sigma M5524), 2% sucrose (S0389, Millipore Sigma), 1×MS vitamin solution (M3900, Millipore Sigma), 2 mg/L 2,4-dichlorophenoxyacetic acid (D7299, Millipore Sigma) and 250 ug/L thiamine HCL (V-014, Millipore Sigma).
(§2) For treatment with AF488-PMPs, 5 mL of the cell suspensions was taken to determine the percent Pack Cell Volume (PCV). The PCV is defined as the volume of cells divided by the total volume of the cell culture aliquot, and expressed as a percentage. Cells were centrifuged for 5 min at 3900 rpm, and the volume of the cell pellet was determined. The % PCV for BMS, Glycine max, and Triticum aestivum were 20%, 15%, and 18%, respectively. For the uptake experiment, the % PCV of the cultures was adjusted to 2%, by diluting cells in their appropriate medium. Next, 125 μl of the plant cell suspensions was added to a 24 well plate, and duplicate samples were treated with 125 μl MES buffer (200 mM MES+10 mM NaCl, pH6) alone (negative control), AF488 dye only (dye only control) or a final concentration of 1×10^12 AF488-PMPs/mL diluted in MES buffer to 125 μl. Cells were incubated for 2 hours at 24° C. in the dark, washed three times with 1 mL MES buffer to remove AF488-PMPs or free dye that had not been taken up, and resuspended in 300 μL of MES buffer for imaging on an epifluorescence microscope (EVOS FL Auto 2, Invitrogen).

[2] = tested on: Triticum aestivum cell line; experiment: as above; format: cell-based; settings: 1×10^12 AF488-PMPs/mL, 2 hours at 24° C.
Experimental: as §1, §2

[3] = tested on: Zea mays Black Mexican sweet (BMS) cells; experiment: as above; format: cell-based; settings: 1×10^12 AF488-PMPs/mL, 2 hours at 24° C.
Experimental: as §1, §2

Compound	cytotoxicity (root shortening, loss of leaf vigor, leaf discoloration) [1]	cytotoxicity in plants (plants)	AF488 fluorescence signal in cells (PMP uptake) (Glycine max cell line)	AF488 fluorescence signal in cells (PMP uptake) [2]	AF488 fluorescence signal in cells (PMP uptake) [3]
COc1cccc2c1C(=O)c1c(O)c3c(c(O)c1C2=O)C[C@@](O)(C(=O)CO)C[C@@H]3O[C@H]1C[C@H](N)[C@H](O)[C@H](C)O1 [free DOX, doxorubicin]	root shortening and leaf discoloration	cytotoxic in plants			
Alexa Fluor 488® NHS Ester [AF488 dye only]			no detectable fluorescence	no detectable fluorescence	no detectable fluorescence
